This note sets out measurements from patent US20250034136A1 (Nimbus Wadjet, Inc., priority 2023, published 2025).

Read-outs that look alike come from different tables or passages of the source.

Experiment [1] addresses WRN (BV08), human Werner helicase (Uniprot Q14191, amino acids 517-1235 with L1074F point mutation) (Homo sapiens (Human), UniProt Q14191, L1074F). The experiment is described as follows: WRN (BV08) ADP-Glo assay. In kind it is biochemical. The following applies: class symbols A-E, read-out: ADP-Glo_hWRN_IC50. Background: In ADP-Glo the light output rises with the ADP produced.

Experiment [2] relates to p21 induction in HCT116 cells. The experiment is described as follows: p21 induction in HCT116 cells. The following applies: Homo sapiens, HCT-116, 24 h, read-out: P21_EC50. In kind it is cell-based. The method, boiled down:
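HCT116 cells, 2,000/well, treated 24 h at 37 °C with 11-point compound dilutions in duplicate. Fixed, then immunostained for p21 and GAPDH and read by near-IR imaging at 800/700 nm. Normalized to DMSO (low) and reference WRN inhibitor (high) controls; EC50 from non-linear regression.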

[3] abbreviates: HCT116 cells, 24 h compound incubation.

Chain of WRN (BV08), human Werner helicase (Uniprot Q14191, amino acids 517-1235 with L1074F point mutation) (Q14191 other isoform, or with tags, fused parts or gaps L1074F (already in the parent)): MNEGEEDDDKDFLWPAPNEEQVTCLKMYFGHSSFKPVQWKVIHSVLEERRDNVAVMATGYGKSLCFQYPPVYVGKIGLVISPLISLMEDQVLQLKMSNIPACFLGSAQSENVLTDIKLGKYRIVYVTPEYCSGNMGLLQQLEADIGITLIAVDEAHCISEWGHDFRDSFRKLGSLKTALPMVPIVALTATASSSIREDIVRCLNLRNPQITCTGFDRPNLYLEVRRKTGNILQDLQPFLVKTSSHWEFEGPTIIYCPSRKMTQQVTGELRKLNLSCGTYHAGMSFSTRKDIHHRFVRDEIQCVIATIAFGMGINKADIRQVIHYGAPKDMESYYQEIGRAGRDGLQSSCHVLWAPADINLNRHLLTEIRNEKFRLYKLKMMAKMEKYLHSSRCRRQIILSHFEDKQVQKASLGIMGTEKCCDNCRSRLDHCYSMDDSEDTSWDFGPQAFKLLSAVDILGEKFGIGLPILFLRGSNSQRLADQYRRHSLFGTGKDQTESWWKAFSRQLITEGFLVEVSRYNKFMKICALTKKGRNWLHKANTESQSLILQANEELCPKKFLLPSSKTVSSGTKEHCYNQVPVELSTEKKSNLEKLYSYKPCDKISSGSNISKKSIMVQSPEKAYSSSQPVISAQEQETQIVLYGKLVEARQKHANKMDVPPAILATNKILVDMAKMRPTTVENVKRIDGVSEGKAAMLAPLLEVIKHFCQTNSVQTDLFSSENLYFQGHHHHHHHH

For `CCc1c(N2CCN(C(=O)c3ncnc(C)c3O)CC2)c(=O)c2nc(Cl)cnc2n1CC(=O)Nc1ccc(C(F)(F)F)cc1Cl` [I-19, N-(2-chloro-4-(trifluoromethyl)phenyl)-2-(2-chloro-6-ethyl-7-(4-(5-hydroxy-6-methylpyrimidine-4-carbonyl)piperazin-1-yl)-8-oxopyrido[2,3-b]pyrazin-5(8H)-yl)acetamide], the IC50 in experiment [1] lay in the range of 5 to 50 nM. In addition, the EC50 in experiment [2] (setting [3]) was more than 5000 nM.

Take `CCc1c(N2CCN(C(=O)c3ncnc(C)c3O)CC2)c(=O)c2nc(NC)cnc2n1CC(=O)Nc1ccc(C(F)(F)F)cc1Cl` [I-20, N-(2-chloro-4-(trifluoromethyl)phenyl)-2-(6-ethyl-7-(4-(5-hydroxy-6-methylpyrimidine-4-carbonyl)piperazin-1-yl)-2-(methylamino)-8-oxopyrido[2,3-b]pyrazin-5(8H)-yl)acetamide]: the IC50 in experiment [1] was 5 to 50 nM. In addition, the EC50 in experiment [2] (setting [3]) was more than 5000 nM.

`C/C=C/c1nc2c(=O)c(N3CCN(C(=O)c4ncnc(C)c4O)CC3)c(CC)n(CC(=O)Nc3ccc(C(F)(F)F)cc3Cl)c2nc1C` [I-21, (E)N-(2-chloro-4-(trifluoromethyl)phenyl)-2-(6-ethyl-7-(4-(5-hydroxy-6-methylpyrimidine-4-carbonyl)piperazin-1-yl)-3-methyl-8-oxo-2-(prop-1-en-1-yl)pyrido[2,3-b]pyrazin-5(8H)-yl)acetamide]: the IC50 in experiment [1] was 5 to 50 nM. Also, in experiment [2] (setting [3]), the EC50 was in the range of 500 to 2000 nM.

Consider `CCc1c(N2CCN(C(=O)c3ncnc(C)c3O)CC2)c(=O)c2nc(C(C)(C)O)c(C)nc2n1CC(=O)Nc1ccc(C(F)(F)F)cc1Cl` [I-22, N-(2-chloro-4-(trifluoromethyl)phenyl)-2-(6-ethyl-7-(4-(5-hydroxy-6-methylpyrimidine-4-carbonyl)piperazin-1-yl)-2-(2-hydroxypropan-2-yl)-3-methyl-8-oxopyrido[2,3-b]pyrazin-5(8H)-yl)acetamide], for which, in experiment [1], the IC50 lay in the range of 50 to 100 nM. The EC50 in experiment [2] (setting [3]) was more than 5000 nM.

Consider `C=C(C)c1nc2c(=O)c(N3CCN(C(=O)c4ncnc(C)c4O)CC3)c(CC)n(CC(=O)Nc3ccc(C(F)(F)F)cc3Cl)c2nc1C` [I-23, N-(2-chloro-4-(trifluoromethyl)phenyl)-2-(6-ethyl-7-(4-(5-hydroxy-6-methylpyrimidine-4-carbonyl)piperazin-1-yl)-3-methyl-8-oxo-2-(prop-1-en-2-yl)pyrido[2,3-b]pyrazin-5(8H)-yl)acetamide], for which, in experiment [1], the IC50 lay within 5 to 50 nM. In addition, the EC50 in experiment [2] was 500 to 2000 nM.

For the compound `CCc1c(N2CCN(C(=O)c3ncnc(C)c3O)CC2)c(=O)c2nc(O)cnc2n1CC(=O)Nc1ccc(C(F)(F)F)cc1Cl` [I-24, N-(2-chloro-4-(trifluoromethyl)phenyl)-2-(6-ethyl-2-hydroxy-7-(4-(5-hydroxy-6-methylpyrimidine-4-carbonyl)piperazin-1-yl)-8-oxopyrido[2,3-b]pyrazin-5(8H)-yl)acetamide], in experiment [1], the IC50 lay within 5 to 50 nM. The EC50 in experiment [2] (setting [3]) is more than 5000 nM.

For the compound `CCc1c(N2CCN(C(=O)c3ncnc(C)c3O)CC2)c(=O)c2nc(CO)cnc2n1CC(=O)Nc1ccc(C(F)(F)F)cc1Cl` [I-25, N-(2-chloro-4-(trifluoromethyl)phenyl)-2-(6-ethyl-7-(4-(5-hydroxy-6-methylpyrimidine-4-carbonyl)piperazin-1-yl)-2-(hydroxymethyl)-8-oxopyrido[2,3-b]pyrazin-5(8H)-yl)acetamide], the IC50 in experiment [1] lay within 50 to 100 nM. Further, in experiment [2] (setting [3]), the EC50 is more than 5000 nM.

Consider `CCc1c(N2CCN(C(=O)c3ncnc(C)c3O)CC2)c(=O)c2nc(OC(F)F)cnc2n1CC(=O)Nc1ccc(C(F)(F)F)cc1Cl` [I-26, N-(2-chloro-4-(trifluoromethyl)phenyl)-2-(2-(difluoromethoxy)-6-ethyl-7-(4-(5-hydroxy-6-methylpyrimidine-4-carbonyl)piperazin-1-yl)-8-oxopyrido[2,3-b]pyrazin-5(8H)-yl)acetamide], for which the IC50 in experiment [1] lay within 100 to 500 nM. Further, the EC50 in experiment [2] (setting [3]) was more than 5000 nM.

As to `CCc1c(N2CCN(C(=O)c3ncnc(C)c3O)CC2)c(=O)c2nc(N3CCCC3=O)cnc2n1CC(=O)Nc1ccc(C(F)(F)F)cc1Cl` [I-27, N-(2-chloro-4-(trifluoromethyl)phenyl)-2-(6-ethyl-7-(4-(5-hydroxy-6-methylpyrimidine-4-carbonyl)piperazin-1-yl)-8-oxo-2-(2-oxopyrrolidin-1-yl)pyrido[2,3-b]pyrazin-5(8H)-yl)acetamide], the IC50 in experiment [1] was 5 to 50 nM. Moreover, the EC50 in experiment [2] (setting [3]) was more than 5000 nM.

In the case of `CCc1c(N2CCN(C(=O)c3ncnc(C)c3O)CC2)c(=O)c2nc(C(F)F)c(C)nc2n1CC(=O)Nc1ccc(C(F)(F)F)cc1Cl` [I-28, N-(2-chloro-4-(trifluoromethyl)phenyl)-2-(2-(difluoromethyl)-6-ethyl-7-(4-(5-hydroxy-6-methylpyrimidine-4-carbonyl)piperazin-1-yl)-3-methyl-8-oxopyrido[2,3-b]pyrazin-5(8H)-yl)acetamide], the IC50 in experiment [1] is 5 to 50 nM. Besides, the EC50 in experiment [2] (setting [3]) was more than 5000 nM.

For `CCc1c(N2CCN(C(=O)c3ncnc(C)c3O)CC2)c(=O)c2nc(N(C)C)c(C)nc2n1CC(=O)Nc1ccc(C(F)(F)F)cc1Cl` [I-29, N-(2-chloro-4-(trifluoromethyl)phenyl)-2-(2-(dimethylamino)-6-ethyl-7-(4-(5-hydroxy-6-methylpyrimidine-4-carbonyl)piperazin-1-yl)-3-methyl-8-oxopyrido[2,3-b]pyrazin-5(8H)-yl)acetamide], the IC50 in experiment [1] was in the range of 5 to 50 nM. Moreover, the EC50 in experiment [2] lay in the range of 500 to 2000 nM.

Regarding `CCc1c(N2CCN(C(=O)c3ncnc(C)c3O)CC2)c(=O)c2nc(N(C)C(C)=O)cnc2n1CC(=O)Nc1ccc(C(F)(F)F)cc1Cl` [I-30, N-(2-chloro-4-(trifluoromethyl)phenyl)-2-(6-ethyl-7-(4-(5-hydroxy-6-methylpyrimidine-4-carbonyl)piperazin-1-yl)-2-(N-methylacetamido)-8-oxopyrido[2,3-b]pyrazin-5(8H)-yl)acetamide], the IC50 in experiment [1] lay in the range of 50 to 100 nM. For the same compound, the EC50 in experiment [2] (setting [3]) was more than 5000 nM.

On to `CCc1c(N2CCN(C(=O)c3ncnc(C)c3O)CC2)c(=O)c2nc(NC(C)=O)cnc2n1CC(=O)Nc1ccc(C(F)(F)F)cc1Cl` [I-31, 2-(2-acetamido-6-ethyl-7-(4-(5-hydroxy-6-methylpyrimidine-4-carbonyl)piperazin-1-yl)-8-oxopyrido[2,3-b]pyrazin-5(8H)-yl)-N-(2-chloro-4-(trifluoromethyl)phenyl)acetamide], for which the IC50 in experiment [1] lay in the range of 5 to 50 nM. In addition, the EC50 in experiment [2] (setting [3]) is more than 5000 nM.

In the case of `CCc1c(N2CCN(C(=O)c3[nH]nc(C)c3O)CC2)c(=O)c2ncc(C)nc2n1CC(=O)Nc1ccc(C(F)(F)F)cc1Cl` [I-32, N-(2-chloro-4-(trifluoromethyl)phenyl)-2-(6-ethyl-7-(4-(4-hydroxy-3-methyl-1H-pyrazole-5-carbonyl)piperazin-1-yl)-3-methyl-8-oxopyrido[2,3-b]pyrazin-5(8H)-yl)acetamide], in experiment [1], the IC50 lay in the range of 50 to 100 nM. Moreover, the EC50 in experiment [2] (setting [3]) is more than 5000 nM.

On to `CCc1c(N2CCN(C(=O)c3ccc4cn[nH]c4c3O)CC2)c(=O)c2ncc(C)nc2n1CC(=O)Nc1ccc(C(F)(F)F)cc1Cl` [I-33, N-(2-chloro-4-(trifluoromethyl)phenyl)-2-(6-ethyl-7-(4-(7-hydroxy-1H-indazole-6-carbonyl)piperazin-1-yl)-3-methyl-8-oxopyrido[2,3-b]pyrazin-5(8H)-yl)acetamide], for which the IC50 in experiment [1] was 5 to 50 nM. Besides, the EC50 in experiment [2] (setting [3]) was more than 5000 nM.
